Measurements from article PMC7175181 (Biomolecules, 2020).
Entries after “also recorded” stand apart in the source; their conditions may differ. No end group written: not given here.

Key:
ACE [1] = target: T1, ACE (Homo sapiens, UniProt P12821); experiment: In vitro ACE inhibition assay (ACE Kit-WST); type: biochemical; conditions: for IC50: ACE Kit-WST, 1 h at 37 °C, absorbance 450 nm, non-linear regression, mean of three independent experiments (n = 3); for Comparison of IC50 (ACE inhibition): n = 3, one-way ANOVA and Sidak's multiple-comparisons test
T1 construct: purchased Dojindo Laboratories ACE Kit-WST
Protocol: The inhibition of ACE was measured using the ACE Kit-WST (Dojindo Laboratories, Mashiki-machi, Japan). Custom synthesized hemorphin peptides ([…], […], YPWTQRF, and YPWTRRF) were purchased from New England Peptide (Gardner, MA, USA). Indicator working solution and enzyme working solution were prepared according to the manufacturer’s instructions. 10 µL of each dose of hemorphin was added to the wells of a 96-well microplate. 20 µL and 40 µL of deionized water were added in blank 1 and blank 2 wells. 20 µL of the substrate buffer was added to each well, followed by 20 µL of enzyme working solution in all of the sample wells and blank 1. The plate was incubated for 1 h at 37 °C. After the incubation period, 200 µL of indicator working solution was added to each well and then incubated at room temperature for 5 min. After incubation, plate absorbance was measured at 450 nm using Glomax Discover Microplate Reader (Promega, Madison, WI, USA). The inhibition of ACE was calculated using the following equation: Inhibition rate (%) = (Ablank1 − Asample)/(Ablank1 − Ablank2) × 100.
From the obtained data, IC50 was calculated using Prism 7 (GraphPad, San Diego, CA, USA) from a non-linear regression plot of ACE inhibition (%) against peptide concentration (µM).
Nonlinear regression was used to generate dose–response curves in Prism 7 (GraphPad, San Diego, CA, USA). The observed data are presented as mean ± SEM (Standard Error of the Mean). One-way or two-way analysis of variance (ANOVA), as appropriate, were carried out and a comparison of means was performed by Sidak’s multiple-comparisons test to estimate the statistical significance between the different treatments.

ACE [2] = target: T1, ACE; set-up: method as in 2 sources, one per row (each row's own in cited_ref): ref [54] = [54]; PMID 7945362; doi:10.1006/bbrc.1994.2447; 54. Zhao Q. Sannier F. Garreau I. Guillochon D. Piot J.M. Inhibition and inhibition kinetics of angiotensin converting enzyme activity by hemorphins, isolated from a peptic bovine hemoglobin hydrolysa ||| ref [24] = [24]; PMID 12182948; doi:10.1016/S0196-9781(02)00083-9; 24. Fruitier-Arnaudin I. Cohen M. Bordenave S. Sannier F. Piot J.M. Comparative effects of angiotensin IV and two hemorphins on angiotensin-converting enzyme activity Peptides 2002 23 1465 1470 10.101; conditions: ref [54]; cited from earlier work
Protocol: An ACE inhibition assay was performed to evaluate the IC50 of these peptides to investigate this further.

[3] = ref [15],[16]; cited from earlier work
Excerpt: Hemorphins are endogenous peptides that are produced from beta hemoglobin. Hemorphins of various lengths (4–10 amino acids) have been identified so far. These peptides are mainly produced in the plasma, brain, cerebrospinal fluid, and spinal cord. The decapeptide LVV-hemorphin-7 ([…]) is considered to be the longest form of hemorphin and is found abundantly in the mammalian nervous system. […] Numerous studies have reported various biological activities of hemor ...

ACE [4] = conditions: ref [53]; cited from earlier work
[5] = cited from earlier work
Excerpt: Angiotensin-I converting enzyme (ACE) is a zinc metallopeptidase that is found in many tissues and biological fluids and it is an important player in regulating RAAS and kallikrein-kinnin system (KKS). There are two main mechanisms by which ACE causes hypertension. Firstly, ACE cleaves two amino acids from the decapeptide angiotensin I to produce the octapeptide angiotensin II, which is a strong vasoconstrictor. Secondly, ACE is involved in the degradation of bradykinnin, a potent vasodilator [5, 6]. ACE is associated with hypertension and remains an important target for the discovery of an ...

T1 sequence (P12821 30-1306, species assumed): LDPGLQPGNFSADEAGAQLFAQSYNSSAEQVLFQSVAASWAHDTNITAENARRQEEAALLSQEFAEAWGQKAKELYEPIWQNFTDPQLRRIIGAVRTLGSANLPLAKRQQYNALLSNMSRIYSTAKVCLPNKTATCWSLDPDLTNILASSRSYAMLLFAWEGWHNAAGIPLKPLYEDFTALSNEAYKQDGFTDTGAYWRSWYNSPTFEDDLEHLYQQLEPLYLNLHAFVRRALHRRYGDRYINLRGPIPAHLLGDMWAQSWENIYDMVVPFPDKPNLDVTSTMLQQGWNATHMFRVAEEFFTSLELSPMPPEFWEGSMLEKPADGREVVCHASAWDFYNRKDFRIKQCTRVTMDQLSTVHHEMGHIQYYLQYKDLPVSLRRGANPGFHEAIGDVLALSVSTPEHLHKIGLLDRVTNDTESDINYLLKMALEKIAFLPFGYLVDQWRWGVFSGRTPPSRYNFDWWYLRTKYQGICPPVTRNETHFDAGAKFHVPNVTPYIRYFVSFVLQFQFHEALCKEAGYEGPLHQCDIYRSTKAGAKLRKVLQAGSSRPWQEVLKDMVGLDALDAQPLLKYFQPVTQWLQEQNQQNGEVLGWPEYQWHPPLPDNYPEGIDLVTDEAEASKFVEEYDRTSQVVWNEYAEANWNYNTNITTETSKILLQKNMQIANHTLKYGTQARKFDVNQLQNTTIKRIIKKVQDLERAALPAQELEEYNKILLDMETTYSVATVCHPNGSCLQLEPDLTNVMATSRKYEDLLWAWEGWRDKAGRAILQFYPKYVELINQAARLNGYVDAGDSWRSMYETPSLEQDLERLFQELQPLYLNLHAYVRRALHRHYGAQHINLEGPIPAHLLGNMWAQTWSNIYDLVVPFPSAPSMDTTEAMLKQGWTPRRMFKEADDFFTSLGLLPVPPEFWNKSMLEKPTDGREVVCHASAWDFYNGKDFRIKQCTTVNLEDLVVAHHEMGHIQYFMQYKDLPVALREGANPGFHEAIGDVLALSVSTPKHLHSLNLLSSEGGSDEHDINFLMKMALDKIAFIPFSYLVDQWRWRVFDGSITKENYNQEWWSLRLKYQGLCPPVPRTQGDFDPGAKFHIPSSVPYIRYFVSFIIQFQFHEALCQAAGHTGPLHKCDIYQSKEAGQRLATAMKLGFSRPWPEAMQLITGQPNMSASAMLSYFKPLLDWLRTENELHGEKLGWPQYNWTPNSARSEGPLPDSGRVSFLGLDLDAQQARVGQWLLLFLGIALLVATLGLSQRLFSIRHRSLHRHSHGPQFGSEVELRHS

## YPWTQRF [YPWTQRF]
ACE [1]
  IC50: 25.9 µM

## VVYPWTQRF
ACE [2]
  ACE inhibitory activity compared to other hemorphins: the removal of the N-terminus leucine significantly decreased the ACE inhibition activity of VVYPWTQRF in comparison to LVVYPWTQRF

## YPWTRRF [YPWTRRF]
ACE [1]
  IC50: 9.31 µM
  Comparison of IC50 (ACE inhibition): significantly lower IC50
ACE [1]; listed as camel hemorphin-7
  Comparison of IC50 (ACE inhibition): significantly lower than the non-camel hemorphin-7 (25.894 µM) (p < 0.001, n = 3)

## CC(C)C[C@H](N)C(=O)N[C@H](C(=O)N[C@H](C(=O)N[C@@H](Cc1ccc(O)cc1)C(=O)N1CCC[C@H]1C(=O)N[C@@H](Cc1c[nH]c2ccccc12)C(=O)N[C@H](C(=O)N[C@@H](CCC(N)=O)C(=O)N[C@@H](CCCNC(=N)N)C(=O)N[C@@H](Cc1ccccc1)C(=O)O)[C@@H](C)O)C(C)C)C(C)C
ACE [1]
  IC50: 12.6 µM
  Comparison of IC50 (ACE inhibition): significantly lower than that of YPWTQRF (25.894 µM)
[3]
  Stability compared to other hemorphins: most stable

## C[C@H](N[C@@H](CCc1ccccc1)C(=O)O)C(=O)N1CCC[C@H]1C(=O)O [enalaprilat]
ACE [4]
  Affinity for ACE compared to lisinopril: lower affinity when compared to lisinopril

## CC(C)C[C@H](N)C(=O)N[C@H](C(=O)N[C@H](C(=O)N[C@@H](Cc1ccc(O)cc1)C(=O)N1CCC[C@H]1C(=O)N[C@@H](Cc1c[nH]c2ccccc12)C(=O)N[C@H](C(=O)N[C@@H](CCCNC(=N)N)C(=O)N[C@@H](CCCNC(=N)N)C(=O)N[C@@H](Cc1ccccc1)C(=O)O)[C@@H](C)O)C(C)C)C(C)C
ACE [1]
  IC50: 6.6 µM
  Comparison of IC50 (ACE inhibition): lower than YPWTRRF (9.310 µM); also recorded: the difference between LVVYPWTRRF and YPWTRRF was not significant
ACE [1]; listed as camel LVV-hemorphin-7
  Comparison of IC50 (ACE inhibition): significantly less than non-camel LVV-hemorphin-7 (12.649 µM) (p < 0.05, n = 3)

## C[C@H](CS)C(=O)N1CCC[C@H]1C(=O)O [captopril]
[5]
  Side effects: cough, kidney problems, angioedema, and allergic reactions
